The results in this text go back to article PMC4428838, “Optimization of Invasion-Specific Effects of Betulin Derivatives on Prostate Cancer Cells through Lead Development” (PLoS ONE, 2015).

Holding throughout (type): cell-based
The test system of one assay is PC-3 cells. The experiment in a line: Primary 3D screen in Matrigel ECM, morphometric image analysis (AMIDA) of invasion, growth and cell death. Particulars: PC-3 in 3D Matrigel; for anti-invasive effects in 3D culture (in words): 0.03-1 μM. On the procedure: Three standard of care compounds widely used against PrCa were added as controls; namely, the androgen receptor antagonist enzalutamide (MDV3100), the C17α-hydroxylase/C17,20-lyase inhibitor abiraterone (Zytiga), and the classic mitotic inhibitor paclitaxel. Treatments started at day 4, when well-differentiated round acini were established.
The live 3D cell cultures were then stained with reactive dyes Calcein AM to detect living, and ethidium homodimer to detect dead cells. Images (Fig 4A) were acquired with confocal microscope and image data were analyzed with the AMIDA software. The principles of morphometric image analysis are briefly outlined in S2 Fig.
Fig 4 Primary 3D screen. PC-3 cells were cultured in 3D Matrigel ECM for 4 days and treated for 6 days with 25 betulin derivatives (from 2D high throughput screens), DMSO/vehicle control, and three reference compounds. A) Representative maximum intensity projections of confocal microscope stack images for selected compound treatments at 300 nM concentration (5× objective, scale 100 μm). B) Three graphs showing the relative impact on three morphometric parameters for 7 betulin derivatives, DMSO control, and one control compound (paclitaxel). […] C) Hierarchical clustering was done using three morphological parameters derived from PC3 organoids: spheroid size (area), complexity and the number of dead cells. D) Wound healing curves of the two betulin derivatives 4 and 20, highlighting the 50% cut-off level (orange dashed line).
Next, statistical analyses were performed to interpret the complex image data (Fig 4B and 4C). For simplicity, we focused on only three, basic morphologic parameters from the multiparametric AMIDA readout (Fig 4B): 1) Area (indicating growth of organoids), 2) structural Complexity (as a measure of the intensity of invasion), and 3) Relative Area of dead cells within organoids (red signal as a measure of cytoxicity or apoptosis). Area (Size of organoids; Fig 4B, upper panel) was measured as the number of pixels within a segmented structure. […] Shape Complexity (Fig 4B, middle panel) was obtained using the structure size (area) and perimeter (number of border pixels). The more regular the shape of an organoid, the closer it is to a perfect circle, thus minimizing the perimeter relative to object size. […] Deviations from this average (residuals) were interpreted as a measure for the shape complexity of organoids. As a logical lower limit for this measure (represented by a perfect circle), we adjusted the intercept (height level) of the regression line to render all returned residuals as positive numbers.
All 3D cultures were done in growth factor-free Matrigel Basement-membrane Matrix (Corning Inc., New York, NY, USA) using 96-well Angiogenesis μ-plates (ibidi GmbH, Munich, Germany) as described before.[38] “Sandwich” assays in short: bottom wells of cooled Angiogenesis plates were filled with 10 μL 4 mg/mL Matrigel, centrifuged for 20 min 200 g and incubated at 37°C temperature for approximately 30–60 min or until the ECM had polymerized. 1,000–1,500 cells were mixed in 2 mg/mL ECM-medium, and 20 μL of cell suspension was added in each well. The plates were centrifuged for 10 min at 100 g, or until the cells had settled on top of the lower ECM. Finally, the outer wells and side reservoirs were filled with water for humidification, and the culture plates placed into the incubator for 3–4 h or overnight. The following day, 60 μL of cell culture medium were added; refreshed every third day by carefully aspirating the medium.

A further assay has as its system LAPC-4. Kind of assay: Secondary 3D screen (spheroid size, complexity, cell death). To be noted: yellow and red clusters. The source says:
(§1) Next, the 25 selected betulin derivatives depicted in Figs 1–3 including control compounds were again thoroughly tested across the same panel of prostate-derived cell lines already used in the preliminary, 2D high-throughput screen. The resulting dendrograms were either generated separately for each cell line (S4 Fig), combined into a single dendrogram (Fig 5A), or shown as reduced organoid sizes (area; Fig 5B).
(§2) Fig 5 Secondary 3D screens. Experimental betulin derivatives and control compounds were tested across a panel of prostate cancer lines (LNCaP, LAPC-4) and non-transformed, prostate epithelial cells (EP156T) in 3D culture. A) The dendrogram is based on three main morphological parameters and combines all data from primary and secondary 3D screens. […] B) Boxplots showing the impact of selected compounds on spheroid size (Area). Data scaling: as described in Fig 4 C) Effects of all betulin derivatives and control compounds on cell death (number of dead cells).
(§3) All 3D cultures were done in growth factor-free Matrigel Basement-membrane Matrix (Corning Inc., New York, NY, USA) using 96-well Angiogenesis μ-plates (ibidi GmbH, Munich, Germany) as described before.[38] “Sandwich” assays in short: bottom wells of cooled Angiogenesis plates were filled with 10 μL 4 mg/mL Matrigel, centrifuged for 20 min 200 g and incubated at 37°C temperature for approximately 30–60 min or until the ECM had polymerized. 1,000–1,500 cells were mixed in 2 mg/mL ECM-medium, and 20 μL of cell suspension was added in each well. The plates were centrifuged for 10 min at 100 g, or until the cells had settled on top of the lower ECM. Finally, the outer wells and side reservoirs were filled with water for humidification, and the culture plates placed into the incubator for 3–4 h or overnight. The following day, 60 μL of cell culture medium were added; refreshed every third day by carefully aspirating the medium. This “sandwich” setting allows almost unifocal alignment of cells and 3D structures in a single optical plane, thus reducing the time required for confocal stack imaging.
(§4) All control compounds were purchased from Selleck (Munich, Germany), except for staurosporine (Sigma-Aldrich, St. Louis, MO, USA) and Y-27632 (Tocris, Bristol, UK) and dissolved in dimethyl sulfoxide (DMSO) as a vehicle at 10 mM. In the primary and secondary 3D screens, experimental and control compound exposures were performed in triplicates. Four concentrations for each compound were applied (0.03, 0.1, 0.3 and 1 μM). Compound treatments were initiated four days after cell embedding, and continued for six days after which spheroids were stained and imaged.
(§5) Supplementary file pone.0126111.s004.eps: S4 Fig Secondary screens. Dendrograms for A) LNCaP, B) LAPC-4, and C) Ep156T betulin screens in 3D culture have been constructed using three main read-outs: spheroid size, spheroid complexity, and cell death. […] (EPS) Click here for additional data file.

Another assay has as its system LNCaP organoids. The assay is described as above. To be noted: dendrogram clusters.
Excerpt: as §1, §2, §3, §4, §5

The next assay deals with Ep156T cell line. Described as above. To be noted: at the highest concentration.
Excerpt: as §1, §2, §3, §4, §5

For assay [1], the system named is actin cytoskeleton of PC-3, LNCaP and Ep156T spheroids. Kind of assay: F-actin cytoskeleton (phalloidin staining) in 3D spheroids. To be noted: after 48 hours of exposure; seen in Ep156T acini and PC-3 spheroids, not LNCaP. The source says: […] […] For phenotypic comparisons, we tested a panel of reference compounds targeting Akt, Rac, ROCK, Src, and other pathways, broadly linked to the actin cytoskeleton.
Fig 8 3D morphologies of prostate spheroids, exposed to selected betulin derivatives and captured with a confocal microscope. Actin cytoskeleton (filamentous or F-actin) is stained green (phalloidin), nuclei with a red dye (confocal microscope images, 40× objective, scale bar shown for each panel on the right lower corner).

Assay [2] concerns PC-3, LNCaP, LAPC-4, Ep156T. The experiment in a line: Primary and secondary 3D screens combined across the cell line panel. To be noted: cell lines other than PC-3, 3D, 300 nM or lower (except compound 15). On the procedure:
Fig 5 Secondary 3D screens. Experimental betulin derivatives and control compounds were tested across a panel of prostate cancer lines (LNCaP, LAPC-4) and non-transformed, prostate epithelial cells (EP156T) in 3D culture. A) The dendrogram is based on three main morphological parameters and combines all data from primary and secondary 3D screens. Effective compound treatments are indicated in red and yellow, yellow being the most invasion-specific. B) Boxplots showing the impact of selected compounds on spheroid size (Area). Data scaling: as described in Fig 4 C) Effects of all betulin derivatives and control compounds on cell death (number of dead cells).
In order to assist functional categorization of our betulin derivatives, we combined all data into a single dendrogram, shown in Fig 5A. In addition, multiparametric representation of all experimental data as a single heatmap is highly informative (S5 Fig) and a potent way to illustrate the effects of compounds on growth, structural complexity and cell death across multiple cell lines. […] However, at lower concentrations, these compounds may act as potent and specific inhibitors of cell invasion and motility.
Supplementary file pone.0126111.s005.eps: S5 Fig Primary and secondary screens. […] The main read-outs (Area = Size, Complexity = Invasiveness, Red = Cell death) are shown in their own columns. Data scaling: DMSO control has been given a value 0 whereas paclitaxel control is valued -100 or 100 depending on the read-out. Color key is located in the upper right corner. (EPS) Click here for additional data file.
Supplementary file pone.0126111.s006.tif: S6 Fig Confocal images from primary and secondary betulin screens. Viable cells have been stained with calcein AM (green) and dead cells with ethidium homodimer-2 (red) (5× objective, maximum intensity projections, scale bar = 100 μm). (TIF) Click here for additional data file.

Take `CNC(=O)c1ccc(N2C(=S)N(c3ccc(C#N)c(C(F)(F)F)c3)C(=O)C2(C)C)cc1F` [enzalutamide, reference compound]: in the assay with PC-3 cells (paclitaxel at 30 and 100 nM), the “effect on morphometric measures (area, complexity, dead cells)” value was “no noticeable effect”. The “efficacy in 3D LAPC-4 culture (dendrogram clusters)” value in the assay with LAPC-4 is recorded as “efficacy of all positive controls”. The “among the effective treatments in 3D LNCaP organoids” value with LNCaP organoids is listed as “among the effective treatments”.
As to `C=C(C)[C@@H]1CC[C@]2(C(=O)O)CC[C@]3(C)C(CCC4[C@@]5(C)CCC(=O)C(C)(C)C5CC[C@]43C)C12` (stereo partly drawn) [Compound 2, betulonic acid], the “anti-invasive effects in 3D culture (in words)” value with PC-3 cells (6 days treatment) is given as “did not show significant anti-invasive effects”. In addition, in the assay with Ep156T cell line, the “response of Ep156T in 3D culture” value is recorded as “responded to betulonic acid”.
Turning to `CN[C@@H]1C[C@H]2O[C@@](C)([C@@H]1OC)n1c3ccccc3c3c4c(c5c6ccccc6n2c5c31)C(=O)NC4` [staurosporine, reference compound], the “organization of actin cytoskeleton in 3D spheroids” value in assay [1] was “affected the cytoskeleton in a comparable fashion”.
On to `C=C(C)[C@@H]1CC[C@]2(C(=O)O)CC[C@]3(C)C(CCC4[C@@]5(C)Cc6nccnc6C(C)(C)C5CC[C@]43C)C12` (stereo partly drawn) [Compound 15], for which, in the assay on PC-3 cells (6 days treatment), the “concentration with strong anti-invasive effects in 3D” value was 1.0 µM and the “anti-invasive effects in 3D culture (in words)” value is listed as “most potent anti-invasive effects”. Moreover, the “growth inhibition in 3D” value with PC-3 cells (at 1.0 μM) is “without any growth inhibition”. The “effects on the other cell lines at anti-invasive concentrations” value in assay [2] is “no noticeable effects on the other cell lines”. Moreover, the “organization of actin cytoskeleton in 3D spheroids” value in assay [1] is recorded as “effectively disrupted the organization of actin cytoskeleton”.
On to `CC(C)[C@@H]1CC[C@]2(C(=O)O)CC[C@]3(C)C(CCC4[C@@]5(C)CCC(=O)C(C)(C)C5CC[C@]43C)C12` (stereo partly drawn) [Compound 3], for which, in the assay with PC-3 cells (6 days treatment), the “concentration at which anti-invasive effects are seen in 3D” value is listed as at most 300 nM and the “anti-invasive effects in 3D culture (in words)” value is “one of the most potent anti-invasive, growth inhibitory agents”. In the assay on LAPC-4, the “efficacy in 3D LAPC-4 culture (dendrogram clusters)” value was “most active”. The “effects on the other cell lines at anti-invasive concentrations” value in assay [2] was “no noticeable effects on the other cell lines”.
